Data as given in patent US12225917B2 (priority 2017, dated 2025).

How the values were obtained:
[1] = test system: E. coli causing scour; assay: In vitro MIC against pig disease strains incl. scour-inducing E. coli (Example 5); format: cell-based; details: Escherichia coli
[2] = test system: Clostridium Difficile; assay: In vitro MIC and MBC against Clostridium difficile (Example 6); format: cell-based; details: Clostridioides difficile, clinical isolate of C. difficile; test agent Berberine sulfate
[3] = General safety in broilers reared to market weight by histology (Example 8); format: in vivo, broiler chickens
Description: This study evaluates the safety of IRP001 chloride in broilers through examination of histology.
The objective of this study was to test the general safety of IRP001 chloride in broilers reared to market weight by examination of histology.
The experiment consisted of the following treatments (1 pen per treatment, Table 54).
Birds were kept in a pen having an area of 4×10=40 ft^2, with clean wood shavings as bedding with a thickness of approximately 4 inches. The pen had 5 feet high side walls with a bottom 1 ½ feet being of solid wood to prevent bird migration.
The temperature of the building was monitored. Environmental conditions during the trial (temperature) were appropriate (optimum) to the age of the animals. Illumination was provided by fluorescent bulbs placed above the pens. The diets were provided ad libitum in one tube-type feeder per pen. From D0 until D7, feed was also supplied on a tray placed on the litter of each pen. Water was provided ad libitum from one Plasson drinker per pen.
Standard floor pen management practices were used throughout the experiment. Animals and housing facilities were inspected twice daily, observing and recording the general health status, constant feed and water supply as well as temperature, removing all dead birds, and recognizing unexpected events. Birds found dead during the study were noted on the Daily Mortality Record, and were not replaced. Pen number, the date of mortality, sex, weight, and diagnosis were recorded.
Day of hatch male Cobb chicks were obtained and ten male broiler chicks were placed in each pen. Accountabilities of all test animals and any extra birds were recorded on animal disposition form. The birds were sexed at the hatchery. The breeder flock history and vaccination record at the hatchery were recorded. Bird weights by pen were recorded on D0 and 42.
All weights were by pen. Treatment Starter feed was fed from D0 to 21. On D21, non-consumed Starter was weighed by pen and discarded. Grower feed was issued and fed until D35. On D35, non-consumed Grower was weighed by pen and discarded. Finisher feed was fed until D42. On D42, non-consumed Finisher was weighed by pen and discarded.
On the day of study completion (D42), five birds from each pen were humanly euthanized and upper, mid and lower gut sections plus liver lobe were collected and stored in neutral buffered formalin. Theses samples were shipped for analysis.

[4] = test system: Clostridium Perfringens; assay: microbe, parasite or virus in culture
[5] = Tissue residue study by LC-MS/MS after in-feed administration (Example 7): muscle and liver; details: for Mean residue, Breast / Mean residue, Lower leg / Mean residue, Upper leg / Mean residue IRP001, Liver: n = 3
[6] = test system: Eimeria acervulina, E. maxima, and E. tenella; assay: Anticoccidial efficacy/sensitivity cage study (Example 9): lesion scores, oocysts per gram fecal material, coccidiosis mortality; details: for % Cocci Mort.: Day 0-20, infected
[7] = IRP001 0.05 g/kg in feed, pen 2
[8] = Group 1, 0.03 g/kg IRP001 in feed (0-35 days), 0 days of washout
[9] = Group 2, 0.03 g/kg IRP001 in feed (0-35 days), 1 day of washout
[10] = Group 3, 0.03 g/kg IRP001 in feed (0-35 days), 2 days of washout
[11] = Group 4, 0.03 g/kg IRP001 in feed (0-35 days), 4 days of washout
[12] = Group 5, 0.03 g/kg IRP001 in feed (0-35 days), 7 days of washout
[13] = Group 6, 0.03 g/kg IRP001 in feed (0-28 days), 14 days of washout
[14] = Group 11, 0.3 g/kg IRP001 in feed (0-35 days), 7 days of washout
[15] = Group 12, 0.3 g/kg IRP001 in feed (0-28 days), 14 days of washout

COc1ccc2cc3[n+](cc2c1OC)CCc1cc2c(cc1-3)OCO2 [Berberine, berberine]
MIC [1]: 125 µg/mL
MBC [2]: 1000 µg/mL
adverse reaction or unanticipated event ([3]; 1 g berberine in 1 kg of commercial feed over 42 days): no adverse reaction or unanticipated event has been observed
Histology index: Coccidia [3, 7]: 3.2
Histology index: Cumulative Pathology [3, 7]: 9.6
Histology index: Enteritis [3, 7]: 6.4
Histology index: Coccidia ([3]; IRP001 0.5 g/kg in feed, pen 3): 1.6
Histology index: Cumulative Pathology ([3]; IRP001 0.5 g/kg in feed, pen 3): 7.6
Histology index: Enteritis ([3]; IRP001 0.5 g/kg in feed, pen 3): 6.0
Histology index: Coccidia ([3]; IRP001 1 g/kg in feed, pen 4): 1.0
Histology index: Cumulative Pathology ([3]; IRP001 1 g/kg in feed, pen 4): 9.2
Histology index: Enteritis ([3]; IRP001 1 g/kg in feed, pen 4): 8.2
MBC [4]: 125 µg/mL
MIC [4]: 62.5 to 125 µg/mL
inhibition at 125 µg/mL ([4]; read-out: killing of viable cells): 100%
residue level in liver ([5]; 0.03 g/kg feed, before and after washout): below the limit of detection
mean residue level in muscle tissues ([5]; 0.03 g/kg feed, with or without washout): not detectable
residue level in muscle tissues (breast, lower leg, upper leg) ([5]; 0.3 g/kg feed, after 4 days washout, listed as IRP001): below the LLOD
residue level in liver ([5]; 0.3 g/kg feed, after a 14-day washout): below the limit of quantitation
Mean residue, Breast [5, 8]: <LLOD (outputs indicating values lower than 2 ng/g are considered to be within baseline noise, below the LLOD, and as such are not detectable)
Mean residue, Lower leg [5, 8]: <LLOD (outputs indicating values lower than 2 ng/g are considered to be within baseline noise, below the LLOD, and as such are not detectable)
Mean residue, Upper leg [5, 8]: <LLOD (outputs indicating values lower than 2 ng/g are considered to be within baseline noise, below the LLOD, and as such are not detectable)
Mean residue, Breast [5, 9]: <LLOD (outputs indicating values lower than 2 ng/g are considered to be within baseline noise, below the LLOD, and as such are not detectable)
Mean residue, Lower leg [5, 9]: <LLOD (outputs indicating values lower than 2 ng/g are considered to be within baseline noise, below the LLOD, and as such are not detectable)
Mean residue, Upper leg [5, 9]: <LLOD (outputs indicating values lower than 2 ng/g are considered to be within baseline noise, below the LLOD, and as such are not detectable)
Mean residue, Breast [5, 10]: <LLOD (outputs indicating values lower than 2 ng/g are considered to be within baseline noise, below the LLOD, and as such are not detectable)
Mean residue, Lower leg [5, 10]: <LLOD (outputs indicating values lower than 2 ng/g are considered to be within baseline noise, below the LLOD, and as such are not detectable)
Mean residue, Upper leg [5, 10]: <LLOD (outputs indicating values lower than 2 ng/g are considered to be within baseline noise, below the LLOD, and as such are not detectable)
Mean residue, Breast [5, 11]: <LLOD (outputs indicating values lower than 2 ng/g are considered to be within baseline noise, below the LLOD, and as such are not detectable)
Mean residue, Lower leg [5, 11]: <LLOD (outputs indicating values lower than 2 ng/g are considered to be within baseline noise, below the LLOD, and as such are not detectable)
Mean residue, Upper leg [5, 11]: <LLOD (outputs indicating values lower than 2 ng/g are considered to be within baseline noise, below the LLOD, and as such are not detectable)
Mean residue, Breast [5, 12]: <LLOD (outputs indicating values lower than 2 ng/g are considered to be within baseline noise, below the LLOD, and as such are not detectable)
Mean residue, Lower leg [5, 12]: <LLOD (outputs indicating values lower than 2 ng/g are considered to be within baseline noise, below the LLOD, and as such are not detectable)
Mean residue, Upper leg [5, 12]: <LLOD (outputs indicating values lower than 2 ng/g are considered to be within baseline noise, below the LLOD, and as such are not detectable)
Mean residue, Breast [5, 13]: <LLOD (outputs indicating values lower than 2 ng/g are considered to be within baseline noise, below the LLOD, and as such are not detectable)
Mean residue, Lower leg [5, 13]: <LLOD (outputs indicating values lower than 2 ng/g are considered to be within baseline noise, below the LLOD, and as such are not detectable)
Mean residue, Upper leg [5, 13]: <LLOD (outputs indicating values lower than 2 ng/g are considered to be within baseline noise, below the LLOD, and as such are not detectable)
Mean residue, Breast ([5]; Group 10, 0.3 g/kg IRP001 in feed (0-35 days), 4 days of washout): <LLOD (outputs indicating values lower than 2 ng/g are considered to be within baseline noise, below the LLOD, and as such are not detectable)
Mean residue, Breast [5, 14]: <LLOD (outputs indicating values lower than 2 ng/g are considered to be within baseline noise, below the LLOD, and as such are not detectable)
Mean residue, Lower leg [5, 14]: <LLOD (outputs indicating values lower than 2 ng/g are considered to be within baseline noise, below the LLOD, and as such are not detectable)
Mean residue, Upper leg [5, 14]: <LLOD (outputs indicating values lower than 2 ng/g are considered to be within baseline noise, below the LLOD, and as such are not detectable)
Mean residue, Breast [5, 15]: <LLOD (outputs indicating values lower than 2 ng/g are considered to be within baseline noise, below the LLOD, and as such are not detectable)
Mean residue, Lower leg [5, 15]: <LLOD (outputs indicating values lower than 2 ng/g are considered to be within baseline noise, below the LLOD, and as such are not detectable)
Mean residue, Upper leg [5, 15]: <LLOD (outputs indicating values lower than 2 ng/g are considered to be within baseline noise, below the LLOD, and as such are not detectable)
maximum acceptable residue (lower than one in a million risk of cancer) ([5]; estimated from typical lifetime consumption of chicken meat, breast or leg muscle tissue): 13 ng berberine per gram of chicken meat
Mean residue IRP001, Liver ([5]; 0.03 g/kg IRP001 in feed days 0-28, 14 days of washout, euthanasia day 42): <LLOD (outputs indicating values lower than 2 ng/g are considered to be within baseline noise, below the LLOD, and as such are not detectable)
Mean residue IRP001, Liver ([5]; 0.03 g/kg IRP001 in feed days 0-35, 0 days of washout, euthanasia day 35): <LLOD (outputs indicating values lower than 2 ng/g are considered to be within baseline noise, below the LLOD, and as such are not detectable)
Mean residue IRP001, Liver ([5]; 0.03 g/kg IRP001 in feed days 0-35, 1 day of washout, euthanasia day 36): <LLOD (outputs indicating values lower than 2 ng/g are considered to be within baseline noise, below the LLOD, and as such are not detectable)
Mean residue IRP001, Liver ([5]; 0.03 g/kg IRP001 in feed days 0-35, 2 days of washout, euthanasia day 37): <LLOD (outputs indicating values lower than 2 ng/g are considered to be within baseline noise, below the LLOD, and as such are not detectable)
Mean residue IRP001, Liver ([5]; 0.03 g/kg IRP001 in feed days 0-35, 4 days of washout, euthanasia day 39): <LLOD (outputs indicating values lower than 2 ng/g are considered to be within baseline noise, below the LLOD, and as such are not detectable)
Mean residue IRP001, Liver ([5]; 0.03 g/kg IRP001 in feed days 0-35, 7 days of washout, euthanasia day 42): <LLOD (outputs indicating values lower than 2 ng/g are considered to be within baseline noise, below the LLOD, and as such are not detectable)
% Cocci Mort. ([6]; IRP001 0.03 g/kg): 0.0b %
% Cocci Mort. ([6]; IRP001 0.10 g/kg): 0.0b %
Lesion Scores Average ([6]; IRP001 0.03 g/kg): 1.8b
Lesion Scores E. acer. ([6]; IRP001 0.03 g/kg): 2.3b
Lesion Scores E. maxima ([6]; IRP001 0.03 g/kg): 1.8bc
Lesion Scores E. tenella ([6]; IRP001 0.03 g/kg): 1.2ab
Lesion Scores Average ([6]; IRP001 0.10 g/kg): 1.5bc
Lesion Scores E. acer. ([6]; IRP001 0.10 g/kg): 2.1bc
Lesion Scores E. maxima ([6]; IRP001 0.10 g/kg): 1.5bcd
Lesion Scores E. tenella ([6]; IRP001 0.10 g/kg): 0.8bcd
